How the values were obtained:
[1] = Body weight (and food/water intake) of MRL/lpr lupus mice; type: in vivo, MRL/lpr mouse
Method: The MRL/lpr mouse model of lupus was chosen to study the effects of SDG on experimental nephritis since it represents the human disease in terms of immune and inflammatory reactions, and age-related renal function deterioration leading to progressive glomerular scarring. Mice were obtained at 5 weeks of age from Jackson Laboratories, Me., U.S.A., and acclimatized for one week. From 6 weeks of age onwards, all groups were gavaged with 200 μl/day of water. The appropriate amount of SDG was dissolved in the water to administer either the low-dose (600 μg/day) or the high-dose (1200 μg/day) of SDG. This example illustrates the effect of SDG on the body weight of MRL/lpr lupus mice in compared to the control group. The daily dosage was administered over a 17-week period (6 to 22 weeks of age).

[2] = system: MRL/lpr mouse model of lupus; experiment: Glomerular filtration rate (14C-inulin clearance) in MRL/lpr mice; type: in vivo
Method: (§1) The MRL/lpr mouse model of lupus was chosen to study the effects of SDG on experimental nephritis since it represents the human disease in terms of immune and inflammatory reactions, and age-related renal function deterioration leading to progressive glomerular scarring.
(§2) Mice were obtained at 5 weeks of age from Jackson Laboratories, Me., U.S.A., and acclimatized for one week. From 6 weeks of age onwards, all groups were gavaged with 200 μl/day of water. The appropriate amount of SDG was dissolved in the water to administer either the low-dose (600 μg/day) or the high-dose (1200 μg/day) of SDG.
This example illustrates the effect of SDG on the glomerular filtration rate (GFR) assessed by ^14 C-inulin clearance.

[3] = system: MRL/lpr mouse model of lupus; experiment: Spleen weight index in MRL/lpr mice (splenomegaly); type: in vivo; conditions: for Spleen Weight/Body Weight Ratio (×100): n = 10
Method: as §1, §2
We therefore examined the effects of low and high dosages of SDG on spleen weight. The spleen weight index was obtained as a ratio of spleen to body weight (×100).
Data analyzed by ANOVA followed by Bonferroni t-tests

[4] = cited from earlier work
[5] = system: MRL/lpr mouse model of lupus; experiment: Onset and prevalence of proteinuria (Albustix) in MRL/lpr lupus mice; type: in vivo
Method: as §1, §2
Gavaging was commenced at the age of 6 weeks in all groups.

[6] = Gut absorption/conversion of SDG after oral intake; type: in vivo; conditions: human or animal
Text: Enterodiol and enterolactone are trivially referred to as lignans and contain a structural backbone of dibenzylbutane. The most abundant lignan detected in flax is secoisolariciresinol diglucoside (SDG).
The secoisolariciresinol (Seco) may be used per se or in the form of secoisolariciresinol diglucoside (SDG).

[7] = system: MRL/lpr mouse model of lupus; experiment: Cervical lymph node weight in MRL/lpr mice (lymphadenopathy); type: in vivo; conditions: for cervical lymph node weights: n = 10
Method: as §1, §2
We therefore examined the effects of low and high dosages of SDG on a deep cervical lymph node in these animals.
The data was non-normally distributed therefore, a non parametric (Kruskal-Wallis) statistical test was used.

[8] = relative to Seco; cited from earlier work
[9] = system: LDL cholesterol, cell mediated immunity, PAF production by PMN leucocytes, platelet aggregation; conditions: cited from earlier work
[10] = Lignan content of urine of mice gavaged with SDG; conditions: after oral SDG 0.6, 1.2 and 4.8 mg/mouse (FIG. 1)
Method: The mice were dosed with the SDG in amounts of 0.6, 1.2 and 4.8 mg/mouse. Urine samples from the mice were then analysed for lignans.

[11] = High-Lignan gp (1200 μg/day), age wk9
[12] = High-Lignan gp (1200 μg/day), age wk11
[13] = High-Lignan gp (1200 μg/day), age wk13
[14] = High-Lignan gp (1200 μg/day), age wk15
[15] = High-Lignan gp (1200 μg/day), age wk17
[16] = High-Lignan gp (1200 μg/day), age wk19
[17] = High-Lignan gp (1200 μg/day), age wk21
[18] = Low-Lignan gp (600 μg/day), age wk9
[19] = Low-Lignan gp (600 μg/day), age wk11
[20] = Low-Lignan gp (600 μg/day), age wk13
[21] = Low-Lignan gp (600 μg/day), age wk15
[22] = Low-Lignan gp (600 μg/day), age wk17
[23] = Low-Lignan gp (600 μg/day), age wk19
[24] = Low-Lignan gp (600 μg/day), age wk21

## COc1cc(C[C@@H](CO[C@@H]2O[C@H](CO)[C@@H](O)[C@H](O)[C@H]2O)[C@H](CO[C@@H]2O[C@H](CO)[C@@H](O)[C@H](O)[C@H]2O)Cc2ccc(O)c(OC)c2)ccc1O [SDG, secoisolariciresinol diglucoside]
[1]; 600 and 1200 μg/day
  food intake: no significant difference
  water intake: no significant difference
[1]; 600 and 1200 μg/day, 6 to 22 weeks of age
  body weight gain in the different treatment groups: no significant difference
[1]; High-Lignan gp (1200 μg/day), age w22
  Body Weight: 38 ± 3 g
[1]; High-Lignan gp (1200 μg/day), age wk5 (before gavage, which began at 6 weeks)
  Body Weight: 25 ± 2 g
[1]; High-Lignan gp (1200 μg/day), age wk7
  Body Weight: 26 ± 2 g
[1]; [11]
  Body Weight: 27 ± 2 g
[1]; [12]
  Body Weight: 29 ± 2 g
[1]; [13]
  Body Weight: 31 ± 3 g
[1]; [14]
  Body Weight: 34 ± 3 g
[1]; [15]
  Body Weight: 37 ± 3 g
[1]; [16]
  Body Weight: 38 ± 3 g
[1]; [17]
  Body Weight: 39 ± 3 g
[1]; Low-Lignan gp (600 μg/day), age w22
  Body Weight: 38 ± 3 g
[1]; Low-Lignan gp (600 μg/day), age wk5 (before gavage, which began at 6 weeks)
  Body Weight: 25 ± 2 g
[1]; Low-Lignan gp (600 μg/day), age wk7
  Body Weight: 26 ± 3 g
[1]; [18]
  Body Weight: 27 ± 3 g
[1]; [19]
  Body Weight: 29 ± 3 g
[1]; [20]
  Body Weight: 31 ± 3 g
[1]; [21]
  Body Weight: 33 ± 3 g
[1]; [22]
  Body Weight: 36 ± 3 g
[1]; [23]
  Body Weight: 37 ± 3 g
[1]; [24]
  Body Weight: 38 ± 4 g
[2]; 600 and 1200 μg/day
  dose dependence of benefit on GFR: dose-dependant benefit
[2]; High-Lignan (1200 μg/day), 14 wks of age, n = 9
  GFR: 8.09 ± 2.74 ml/min/kg body weight
[2]; High-Lignan (1200 μg/day), 22 wks of age, n = 10
  GFR: 5.33 ± 3.16 ml/min/kg body weight
[2]; Low-Lignan (600 μg/day), 14 wks of age, n = 10
  GFR: 7.41 ± 3.88 ml/min/kg body weight
[2]; Low-Lignan (600 μg/day), 22 wks of age, n = 10
  GFR: 4.81 ± 1.49 ml/min/kg body weight
[2]; compared to vehicle treated control group
  decline of renal function (GFR): attenuates the decline of renal function (GFR)
[3]; 600 and 1200 μg/day, ANOVA, Bonferroni t-tests
  spleen weight index in the different groups: no significant difference
[3]; High-Lignan (1200 μg/day), 14 wks of age, marked a
  Spleen Weight/Body Weight Ratio (×100): 0.77 ± 0.26
[3]; High-Lignan (1200 μg/day), 22 wks of age, marked a,b
  Spleen Weight/Body Weight Ratio (×100): 1.74 ± 0.35
[3]; Low-Lignan (600 μg/day), 14 wks of age, marked a
  Spleen Weight/Body Weight Ratio (×100): 0.93 ± 0.33
[3]; Low-Lignan (600 μg/day), 22 wks of age, marked a,b
  Spleen Weight/Body Weight Ratio (×100): 1.89 ± 0.39
[3]; high dose SDG group, 14 weeks age-interval
  spleen weight gain compared to other groups: moderately smaller spleen weight gain
[4]; enzymatic hydrolysis and intestinal microflora
  metabolism on ingestion: enzymatically hydrolyzed to the aglycone and transformed by intestinal microflora into enterodiol and enterolactone
[4]; generally accepted for diglycosides
  absorption across the gut wall: not absorbed across the gut wall
[5]; [11]
  % of mice with ≥ 2 proteinuria on Albustix: 0%
[5]; High-Lignan gp (1200 μg/day), age wk 10
  % of mice with ≥ 2 proteinuria on Albustix: 0%
[5]; [12]
  % of mice with ≥ 2 proteinuria on Albustix: 4%
[5]; High-Lignan gp (1200 μg/day), age wk 12
  % of mice with ≥ 2 proteinuria on Albustix: 4%
[5]; [13]
  % of mice with ≥ 2 proteinuria on Albustix: 4%
[5]; High-Lignan gp (1200 μg/day), age wk 14
  % of mice with ≥ 2 proteinuria on Albustix: 4%
[5]; [14]
  % of mice with ≥ 2 proteinuria on Albustix: 7%
[5]; High-Lignan gp (1200 μg/day), age wk 16
  % of mice with ≥ 2 proteinuria on Albustix: 7%
[5]; [15]
  % of mice with ≥ 2 proteinuria on Albustix: 7%
[5]; High-Lignan gp (1200 μg/day), age wk 18
  % of mice with ≥ 2 proteinuria on Albustix: 21%
[5]; [16]
  % of mice with ≥ 2 proteinuria on Albustix: 36%
[5]; High-Lignan gp (1200 μg/day), age wk 20
  % of mice with ≥ 2 proteinuria on Albustix: 50%
[5]; [17]
  % of mice with ≥ 2 proteinuria on Albustix: 43%
[5]; High-Lignan gp (1200 μg/day), age wks 6-8
  % of mice with ≥ 2 proteinuria on Albustix: 0%
[5]; [18]
  % of mice with ≥ 2 proteinuria on Albustix: 0%
[5]; Low-Lignan gp (600 μg/day), age wk 10
  % of mice with ≥ 2 proteinuria on Albustix: 0%
[5]; [19]
  % of mice with ≥ 2 proteinuria on Albustix: 0%
[5]; Low-Lignan gp (600 μg/day), age wk 12
  % of mice with ≥ 2 proteinuria on Albustix: 0%
[5]; [20]
  % of mice with ≥ 2 proteinuria on Albustix: 0%
[5]; Low-Lignan gp (600 μg/day), age wk 14
  % of mice with ≥ 2 proteinuria on Albustix: 17%
[5]; [21]
  % of mice with ≥ 2 proteinuria on Albustix: 21%
[5]; Low-Lignan gp (600 μg/day), age wk 16
  % of mice with ≥ 2 proteinuria on Albustix: 21%
[5]; [22]
  % of mice with ≥ 2 proteinuria on Albustix: 23%
[5]; Low-Lignan gp (600 μg/day), age wk 18
  % of mice with ≥ 2 proteinuria on Albustix: 38%
[5]; [23]
  % of mice with ≥ 2 proteinuria on Albustix: 38%
[5]; Low-Lignan gp (600 μg/day), age wk 20
  % of mice with ≥ 2 proteinuria on Albustix: 38%
[5]; [24]
  % of mice with ≥ 2 proteinuria on Albustix: 27%
[5]; Low-Lignan gp (600 μg/day), age wks 6-8
  % of mice with ≥ 2 proteinuria on Albustix: 0%
[5]; low and high dosages
  onset of proteinuria: delay the onset of proteinuria
  prevalence of proteinuria: reduce the prevalence of proteinuria
[6]
  conversion in the gut after oral administration: converted to secoisolariciresinol in the gut
[7]; Examples 5 and 6 taken together
  reducing cell proliferation, a marker of immune and inflammatory activity: moderate benefits
[7]; High-Lignan (1200 μg/day), 14 wks of age
  cervical lymph node weights: 71 ± 65 mg
[7]; High-Lignan (1200 μg/day), 22 wks of age, a,b: significantly greater than baseline and than 14 week values
  cervical lymph node weights: 211 ± 58 mg
[7]; Low-Lignan (600 μg/day), 14 wks of age, a: significantly greater than baseline
  cervical lymph node weights: 97 ± 69 mg
[7]; Low-Lignan (600 μg/day), 22 wks of age, a: significantly greater than baseline
  cervical lymph node weights: 251 ± 91 mg
[7]; high dose (1200 μg/day), at/up to 14 weeks of age, Kruskal-Wallis
  increase in lymph node weight: attenuated the increase in lymph node weight
[8]
  water solubility compared with Seco: greater water solubility

## CC/C=C\C/C=C\C/C=C\CCCCCCCC(=O)O [alpha-linolenic acid]
[9]
  LDL cholesterol: lower
  PAF production by PMN leucocytes: lower
  cell mediated immunity: lower
  platelet aggregation: lower

## OC[C@H](Cc1cccc(O)c1)[C@H](CO)Cc1cccc(O)c1 [enterodiol]
[10]
  mammalian lignans in the urine: only traces

## COc1cc(CC(CO)C(CO)Cc2ccc(O)c(OC)c2)ccc1O (stereo not drawn) [secoisolariciresinol]
[10]
  secoisolariciresinol concentrations in the urine: SDG dose dependent
